Assay results reported in PubChem BioAssay AID449745 (Broad Institute, 2010).
Results filed as inconclusive are left out. Activity calls are given as the source filed them. How the calls were made is not given here.

biological target: Zinc finger protein mex-5 (Caenorhabditis elegans) (UniProt Q9XUB2); assay: retest of MEX-5 TCR-2 binding inhibitors, confirmation, biochemical, C. elegans, fluorescence polarization, dose retest (AID 449745); settings: Mex-5 / TCR-2 RNA binding;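 further: potency is for blocking Mex-5 binding to labeled TCR2 RNA like unlabeled competitor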
Sequence (Q9XUB2 whole entry, looked up): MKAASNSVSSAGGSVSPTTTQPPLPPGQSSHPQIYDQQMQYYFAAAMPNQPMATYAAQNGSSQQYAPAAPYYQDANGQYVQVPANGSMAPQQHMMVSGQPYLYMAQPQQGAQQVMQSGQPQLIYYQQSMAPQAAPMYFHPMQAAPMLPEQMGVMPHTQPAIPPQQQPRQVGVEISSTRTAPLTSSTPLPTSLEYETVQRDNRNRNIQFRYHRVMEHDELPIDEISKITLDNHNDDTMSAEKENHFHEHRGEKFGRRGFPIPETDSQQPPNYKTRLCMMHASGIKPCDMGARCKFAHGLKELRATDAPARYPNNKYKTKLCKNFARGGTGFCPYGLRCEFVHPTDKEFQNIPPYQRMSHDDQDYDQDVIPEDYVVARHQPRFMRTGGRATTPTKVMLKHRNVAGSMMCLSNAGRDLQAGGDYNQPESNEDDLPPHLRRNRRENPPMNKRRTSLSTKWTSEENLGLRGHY

Row | SMILES | AC50
1 | CC(=O)Nc1ccc(S(=O)(=O)NCC(=O)NNC(=O)c2csc(N3CCOCC3)n2)cc1 | 12.7 µM
2 | CCCN1CCN(S(=O)(=O)c2cn(C)nc2C)CC1 | 39.9 µM
3 | CCOC(=O)c1c(-c2ccc(C)o2)csc1NC(=S)NC(=O)c1cccs1 | > 38 µM (inactive)
4 | CCOC(=O)c1c(NS(=O)(=O)c2ccccc2)n(CCCOC)c2nc3ccccc3nc12 | > 38 µM (inactive)
5 | CN1/C(=C\C=C2C(=O)NC(=O)NC2=O)C(C)(C)c2ccccc21 | > 38 µM (inactive)
6 | O=c1c2ccccc2nc(/C=C/c2ccc([N+](=O)[O-])o2)n1-c1ccc(O)cc1 | > 38 µM (inactive)
7 | CCCCC1=CC2=C(c3ccco3)C(=O)C(C)(OC(=O)c3ccc(OC)cc3)C(=O)C2=CN1C(CO)CO (centres undefined) | > 38 µM (inactive)
8 | Cc1cc2ccccc2n1CCNC(=O)c1ccc(Br)o1 | > 38 µM (inactive)
9 | O=C(N/N=C/c1c(O)n(Cc2ccccc2)c(=O)[nH]c1=O)c1ccccc1O | 10.5 µM
10 | O=C(N/N=C/c1c(O)n(C2CC2)c(=S)[nH]c1=O)c1ccccc1O | 27.5 µM
11 | CCNC(=S)N/N=C/c1sc(N2CCCCC2)nc1-c1cccs1 | 10 µM
12 | CC(C)C[C@H](NC(=O)C1CC(=O)N(c2ccc3c(c2)OCO3)C1)C(=O)NC1CCCC1 (some centres undefined) | 29.2 µM
13 | CCOC(=O)/C(C#N)=C\c1ccc(N2CCN(C/C=C/c3ccccc3)CC2)cc1 | 7.9 µM
14 | COc1ccc(CC(=O)NNC(=O)c2cnccn2)cc1 | 15.5 µM
15 | O=C(N/N=C/c1cc2c(cc1Cl)OCO2)c1ccccn1 | > 38 µM (inactive)
16 | O=Cc1ccc2ccc3cccnc3c2n1 | 30.2 µM
17 | CCN1C/C(=C/c2ccc(OC)c(O)c2)C(=O)/C(=C/c2ccc(OC)c(O)c2)C1 | > 38 µM (inactive)
18 | O=C(NNC(=O)c1ccccc1O)c1ccc(S(=O)(=O)Nc2ccccc2)cc1 | 11.4 µM
19 | Cc1cc(C(=O)NNC(=O)CCCCC(=O)NNC(=O)c2cc(C)[nH]n2)n[nH]1 | < 0.3 µM
20 | COc1ccc(Cn2c(O)c(/C=N/NC(=O)c3ccccc3O)c(=O)[nH]c2=O)cc1 | 6.41 µM
21 | COc1cc(/C=C2/C(=O)NN(c3ccc(Cl)c(Cl)c3)C2=O)cc([N+](=O)[O-])c1O | 31.6 µM
22 | Cc1cc(C)c2c3c(sc2n1)C(c1ccccc1)C(C#N)=C(N)O3 (centres undefined) | > 38 µM (inactive)
23 | CCOC(=O)c1ccc(NC(=O)C(=O)NCc2ccc(/C=C(/C#N)C(=O)NCCOC)o2)cc1 | > 38 µM (inactive)
24 | CN(N=Nc1ccc([N+](=O)[O-])cc1)c1ccccc1 | 9.51 µM
25 | Nc1ccc2nc3c(=O)n(CCc4ccccc4)c(=O)[nH]c3nc2c1 | 3.43 µM
26 | COc1cccc(N=Nc2c(N)[nH][nH]c2=O)c1 | 10.3 µM

Row | SMILES | AC50
27 | COc1ccccc1C(=O)Oc1ccc2c(c1)O/C(=C\c1ccncc1)C2=O | 10.8 µM
28 | COc1ccc(C(=O)C/C(=C\C(=O)c2ccc(C)cc2)c2ccccc2)cc1 | > 38 µM (inactive)
29 | COC(=O)CCC(=O)OC1(C)C(=O)C2=CN(Cc3ccco3)C(c3ccc(OC)cc3)=CC2=C(Br)C1=O (centres undefined) | 21.1 µM
30 | Cc1nnc(N2C(=O)C(O)=C(C(=O)c3ccco3)C2c2ccc(C(C)C)cc2)s1 (centres undefined) | 37.2 µM
31 | Cc1cc[n+](-c2[nH]c(=O)sc2/C=N/N=C(\[O-])c2ccncc2)cc1 | 29.4 µM
32 | O=C(O)c1c2c(nc3ccccc13)/C(=C/c1ccc(O)cc1)CC2 | 36.4 µM
33 | O=C(Cc1c(O)c2ccccc2oc1=O)c1ccc(C(F)(F)F)cc1 | 37.5 µM
34 | COc1cc(OC)c(OC)cc1/C=C1/Cc2ccccc2C1=O | 8.04 µM
35 | CCCCOc1ccc2c(c1)/C(=C(\C(Cl)=C(Cl)Cl)[N+](=O)[O-])N2 | 14.2 µM
36 | Cc1cccc(C)c1NC(=O)/C(C#N)=C/c1ccc(-c2ccc(C(=O)O)cc2)o1 | > 38 µM (inactive)
37 | COCC(C)N1CCC(Oc2cccc(C(=O)NCCc3ccccc3)c2)CC1 (centres undefined) | > 38 µM (inactive)
38 | CC(C)OC(=O)c1c2c(n3ccccc13)C(=O)c1ccccc1C2=O | 19.1 µM
39 | CCOc1cc(Br)c(/C=C2/C(=O)N(C)C(=S)N2CC(=O)OC)cc1OC | > 38 µM (inactive)
40 | COc1cccc(OCC(=O)NNC(=O)c2cnccn2)c1 | 0.315 µM
41 | CCc1cc[n+](-c2nc3ccccc3nc2[N-]S(=O)(=O)c2ccc(Br)s2)cc1 | 4.86 µM
42 | O=S(=O)(O)c1cccc2c(N=Nc3ccc(O)c4ncccc34)cccc12 | 3.04 µM
43 | Cc1ccc([C@@H]2C3COCC=C3C(C#N)=C(N)C2(C#N)C#N)o1 (some centres undefined) | > 38 µM (inactive)
44 | CC1=NOC(=O)/C1=C/c1ccc2c(c1)OCO2 | > 38 µM (inactive)
45 | O=C(NNc1ncnc2c1cnn2-c1ccc(F)cc1)c1ccco1 | 15.9 µM
46 | O=[As](O)(O)c1ccc(N=Nc2ccc(O)cc2)cc1 | 37.5 µM
47 | O=C(N/N=C/c1oc(O)c2ccccc12)c1ccccc1O | > 38 µM (inactive)
48 | COc1cccc(NC(=O)CSc2nc3ccccc3nc2N2CCOCC2)c1 | > 38 µM (inactive)
49 | CCCCN(C(=O)C1=COCCO1)c1c(N)n(Cc2ccccc2)c(=O)[nH]c1=O | > 38 µM (inactive)
50 | Brc1ccc(C2=CC(c3cccs3)n3ncnc3N2)cc1 (centres undefined) | 15.8 µM
51 | Cc1oc2c(cc(NS(=O)(=O)c3ccc(C(C)C)cc3)c3ccccc32)c1C(=O)O | 5.37 µM
52 | Cc1cc(=O)n2[nH]c(=O)c(N=Nc3ccccc3)c2[nH]1 | < 0.3 µM

Row | SMILES | AC50
53 | Cc1ccc(C(=O)N/N=C\c2cc(Br)c(Br)o2)cn1 | 39.7 µM
54 | Oc1ccc(N=Nc2n[nH]c(-c3ccccc3)n2)cc1 | 4.21 µM
55 | N=c1c(C(=O)NCC2CCCO2)cc2c(=O)n3ccccc3nc2n1Cc1ccc(Cl)cc1 (centres undefined) | > 38 µM (inactive)
56 | Cc1ccc(C)n1C(Cc1ccccc1)C(=O)O (centres undefined) | 8.84 µM
57 | COc1ccc2c(c1)c1nc3ccccc3nc1n2Cc1ccc(OC(C)C)c(OC)c1 | 24.3 µM
58 | COc1ccc(C(=O)N2C(=S)NC(=O)/C2=C\c2ccc(C)cc2)cc1 | > 38 µM (inactive)
59 | CCOC(=O)NC(=O)COC(=O)c1ccc(Sc2ncn[nH]2)c([N+](=O)[O-])c1 | 16.1 µM
60 | COc1ccc(OC)c(N2C(=O)NC(=O)/C(=C\c3ccc([N+](=O)[O-])s3)C2=O)c1 | 16.1 µM
61 | CC1CN(c2nc3ccccc3nc2C(C#N)C(=O)NCc2ccc3c(c2)OCO3)CC(C)O1 (centres undefined) | 23.8 µM
62 | O=C1CCCC(O)=C1N=Nc1ccc(C(=O)O)cc1 | 32.9 µM
63 | CCOC(=O)c1cc(C#N)c(SCC(N)=O)[nH]c1=O | > 38 µM (inactive)
64 | Cc1cc(C)c2c(c1)NC(C(=O)O)C1CC=CC21 (centres undefined) | 13.3 µM
65 | CC[n+]1c(/C=C/C=C/c2ccc(N(C)C)cc2)sc2ccccc21 | 18.8 µM
66 | CCc1cccc2cc3c(N)c(C(=O)Nc4ccc(S(=O)(=O)N5CCCC5)cc4)sc3nc12 | 8.06 µM
67 | O=C(C1=NN(c2ccccc2)C2C(=O)N(c3ccccc3)C(=O)C12)c1ccccc1 (centres undefined) | 32 µM
68 | Oc1ccc(/C=N/n2c(-c3ccccc3)n[nH]c2=S)cc1Br | 13.1 µM
69 | CC(=O)Nc1ccc(S(=O)(=O)NNC(=O)C(=O)NNc2ccccn2)cc1 | 0.621 µM
70 | O=C1c2cccc3cccc(c23)C(=O)C1(O)O | 15.6 µM
71 | Cc1nn2c(N)csc2nc1=O | 30 µM
72 | CCOC(=O)C1=C(C)N=c2s/c(=C\c3cccn3C)c(=O)n2C1c1cccc(OC)c1OC (centres undefined) | 13.8 µM
73 | Cc1cc(=O)[nH]c(SCc2nc3ccc([N+](=O)[O-])cc3[nH]2)n1 | 16.6 µM
74 | COc1ccc(/C=C/C(=O)c2c(O)n(CCC3=CCCCC3)c(=O)[nH]c2=O)cc1 | > 38 µM (inactive)
75 | CCN(CC)c1ccc2cc(S(=O)(=O)c3ccc(C)cc3)c(=O)oc2c1 | 11.5 µM
76 | O=c1cc[nH]c2c1ccc1c(=O)cc[nH]c12 | 25 µM
77 | Nc1nnc(CC(=O)N/N=C/c2cc([N+](=O)[O-])cc(Br)c2O)s1 | 2.69 µM
78 | CN(C)c1ccc(/C=N/NC(=O)c2cnc3ccccc3c2)cc1 | 31.7 µM

Row | SMILES | AC50
79 | Cc1cccc(C2Nc3ccccc3C(=O)N2NC(=O)c2ccc([N+](=O)[O-])cc2)n1 (centres undefined) | 8.47 µM
80 | O=C(Nc1ccc(S(=O)(=O)Nc2nccs2)cc1)c1ccc(N2C(=O)c3ccccc3C2=O)cc1 | > 38 µM (inactive)
81 | Cc1cc(O)c(-c2cc(O)c(C)cc2O)cc1O | 6.21 µM
82 | O=C(c1nc2ccc(Cl)cn2c1CN1CCCC1)N1CCc2ccccc2C1 | 23.7 µM
83 | O=C(O)CCCC(=O)NNc1nc(-c2ccccc2)c2cc(Cl)ccc2n1 | 13.3 µM
84 | CCOc1ccc2nc(N3CCCN(C(=O)Nc4ccccc4C)CC3)c(C#N)cc2c1 | 22.8 µM
85 | O=C(O)c1cc(-c2ccco2)nc2cc3ccccc3cc12 | > 38 µM (inactive)
86 | CCn1c(C)c(C(C)=O)c(N2CCN(c3ccccc3)CC2)nc1=S | > 38 µM (inactive)
87 | COC/C=C/C1=CC2=CC(=O)C(C)(O)C(=O)C2=CO1 (centres undefined) | 13 µM
88 | CN(C)c1ccc(/C=C/c2nc3ccccc3c(=O)[nH]2)cc1 | > 38 µM (inactive)
89 | CN1CCN(c2ccc([N+](=O)[O-])c3no[n+]([O-])c23)CC1 | 33.4 µM
90 | CC1(C)CC(=O)C2=C(C1)OC(N)=C(C#N)C2c1ccccc1[N+](=O)[O-] (centres undefined) | > 38 µM (inactive)
91 | Cc1cc2n(n1)C(c1c[nH]c3ccccc13)Nc1ccccc1-2 (centres undefined) | > 38 µM (inactive)
92 | Cc1cccc(N=Nc2c(O)[nH]c3ccc(F)cc23)c1 | 4.46 µM
93 | NS(=O)(=O)c1ccc(N=Nc2c(=O)[nH]n3c(=O)c4c([nH]c23)CCCC4)cc1 | < 0.3 µM
94 | CCOC(=O)C1CCN(c2nc(N)c3c(N)nc(SCC(=O)O)cc3c2C#N)CC1 | 20.1 µM
95 | COc1ccc(N=Nc2nc3ccc(Br)cc3n2C)cc1 | 34.9 µM
96 | CC(C)CN1CCN(Cc2cccc3ncccc23)CC1CCO (centres undefined) | > 38 µM (inactive)
97 | Cc1cccc(-n2c(O)c(C=Nc3ccc4c(c3)OCO4)c3ccccc3c2=O)n1 | 39 µM
98 | CC1=Nc2cccc3cccc(c23)N1C | > 38 µM (inactive)
99 | CCN(CC)C(=O)Cn1c(=O)c2ccccc2n2c(=S)sc(-c3cccc(C)c3)c12 | 17.2 µM
100 | CCOc1ccc(/C=C/C(=O)c2c(O)c3ccccc3oc2=O)cc1 | > 38 µM (inactive)
101 | Cc1cc(/C=C2\SC(=S)N(Cc3ccco3)C2=O)c(C)n1-c1ccccc1 | 16.6 µM
102 | O=c1ccc2cc3c([nH]c4ccc(Br)cc43)oc-2c1O | 3.77 µM
103 | CSc1nc(N)c(N=Nc2ccc([As](=O)(O)O)cc2)c(=O)[nH]1 | 17.7 µM
104 | CC1(C)CC(=O)C2=C(C1)N=c1s/c(=C/c3ccc(F)c(F)c3)c(=O)n1C2c1ccc(F)cc1 (centres undefined) | > 38 µM (inactive)
